Where only a bound is given, the exact number is not on record here.

This experiment deals with T1, CDK12 complexed with Cyclin K (Homo sapiens, UniProt Q9NYV4).
T1 construct: GST (N)
T1 sequence (Q9NYV4 whole entry): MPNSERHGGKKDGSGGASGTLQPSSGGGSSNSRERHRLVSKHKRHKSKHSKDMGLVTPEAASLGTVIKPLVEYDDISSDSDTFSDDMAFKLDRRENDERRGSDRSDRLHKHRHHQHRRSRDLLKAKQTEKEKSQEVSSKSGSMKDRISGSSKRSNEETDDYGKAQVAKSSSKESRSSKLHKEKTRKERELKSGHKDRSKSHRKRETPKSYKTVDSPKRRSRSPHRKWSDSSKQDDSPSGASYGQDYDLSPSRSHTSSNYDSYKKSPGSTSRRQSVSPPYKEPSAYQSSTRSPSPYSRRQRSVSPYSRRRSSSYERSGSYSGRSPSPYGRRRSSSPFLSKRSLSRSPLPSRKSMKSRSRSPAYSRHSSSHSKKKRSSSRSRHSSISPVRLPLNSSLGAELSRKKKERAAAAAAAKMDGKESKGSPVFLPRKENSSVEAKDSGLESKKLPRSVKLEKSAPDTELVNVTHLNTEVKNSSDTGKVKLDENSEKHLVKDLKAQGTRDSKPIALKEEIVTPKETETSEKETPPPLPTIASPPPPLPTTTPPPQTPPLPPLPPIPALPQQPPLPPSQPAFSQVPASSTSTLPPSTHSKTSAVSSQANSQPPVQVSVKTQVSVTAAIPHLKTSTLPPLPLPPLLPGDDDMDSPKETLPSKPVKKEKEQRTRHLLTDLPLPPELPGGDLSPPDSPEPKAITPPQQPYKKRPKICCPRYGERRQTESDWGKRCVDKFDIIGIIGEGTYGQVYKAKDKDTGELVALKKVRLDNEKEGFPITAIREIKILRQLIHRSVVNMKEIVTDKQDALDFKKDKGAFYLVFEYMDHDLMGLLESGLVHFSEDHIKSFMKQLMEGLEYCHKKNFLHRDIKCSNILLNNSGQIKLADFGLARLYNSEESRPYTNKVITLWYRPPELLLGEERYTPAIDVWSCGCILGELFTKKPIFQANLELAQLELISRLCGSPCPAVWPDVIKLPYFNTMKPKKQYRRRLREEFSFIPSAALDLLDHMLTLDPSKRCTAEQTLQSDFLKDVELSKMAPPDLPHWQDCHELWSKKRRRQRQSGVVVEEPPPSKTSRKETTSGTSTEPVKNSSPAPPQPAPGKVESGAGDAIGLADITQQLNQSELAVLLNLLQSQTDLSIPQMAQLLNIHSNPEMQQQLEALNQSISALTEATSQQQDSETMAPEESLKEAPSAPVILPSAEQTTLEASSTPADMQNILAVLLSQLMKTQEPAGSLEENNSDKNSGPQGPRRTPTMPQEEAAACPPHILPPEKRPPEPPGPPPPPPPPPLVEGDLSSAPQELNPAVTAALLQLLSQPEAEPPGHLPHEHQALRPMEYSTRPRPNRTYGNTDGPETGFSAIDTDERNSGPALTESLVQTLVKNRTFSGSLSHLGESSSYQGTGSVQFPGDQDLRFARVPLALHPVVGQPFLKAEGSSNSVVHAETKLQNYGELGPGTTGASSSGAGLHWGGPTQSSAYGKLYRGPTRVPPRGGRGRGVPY
T1 sequence (O75909 whole entry partner): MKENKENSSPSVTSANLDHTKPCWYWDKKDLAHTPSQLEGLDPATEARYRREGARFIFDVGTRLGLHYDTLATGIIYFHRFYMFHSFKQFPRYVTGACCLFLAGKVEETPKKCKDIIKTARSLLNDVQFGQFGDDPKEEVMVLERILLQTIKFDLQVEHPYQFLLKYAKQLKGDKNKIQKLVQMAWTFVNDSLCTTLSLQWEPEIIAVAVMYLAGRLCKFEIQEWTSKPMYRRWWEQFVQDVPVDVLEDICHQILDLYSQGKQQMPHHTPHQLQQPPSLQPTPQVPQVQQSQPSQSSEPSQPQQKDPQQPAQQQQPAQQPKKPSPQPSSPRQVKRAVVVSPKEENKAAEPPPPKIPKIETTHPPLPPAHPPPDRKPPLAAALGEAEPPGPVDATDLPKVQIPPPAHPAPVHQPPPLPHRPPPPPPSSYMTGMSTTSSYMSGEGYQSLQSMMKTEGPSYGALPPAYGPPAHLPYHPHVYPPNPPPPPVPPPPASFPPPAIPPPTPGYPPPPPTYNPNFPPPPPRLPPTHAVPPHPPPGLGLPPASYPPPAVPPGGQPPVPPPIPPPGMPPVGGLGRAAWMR
Put plainly: CDK Enzymatic Assays (HTRF, LANCE Ultra kinase assay), Example A1. As to conditions: enzyme pre-incubated with compounds for 60 minutes prior to addition of ATP (1 mM final) and Ulight-peptide; reaction 60-90 minutes at room temperature. Type of experiment: biochemical. From the text:
Example A1. CDK Enzymatic Assays
The following activity of the CDK enzymes in complex with their respective cyclins we assayed: CDK1 complexed with Cyclin B1; CDK2 complexed with Cyclin E1; CDK4 complexed with Cyclin D1; CDK6 complexed with Cyclin D1; CDK6 complexed with Cyclin D3; CDK9 complexed with Cyclin T1; CDK7 complexed with Cyclin H/MAT1; CDK2 complexed with Cyclin A2; CDK5 complexed with p35; CDK12 complexed with Cyclin K; CDK13 complexed with Cyclin K. These in vitro enzyme activity are assayed using homogeneous time-resolved energy transfer (HTRF), which measures phosphorylation of a peptide substrate. The LANCER Ultra kinase assay (PerkinElmer) uses a ULight™-labeled EIF4E-binding protein 1 (THR37/46) peptide (DYSTTPGGTLFSTTPGTRI (SEQ ID NO: 1)) substrate and a Europium-labeled anti-phospho-4E-BP1 antibody (CDK2, CDK1, CDK4, CDK6, CDK9, CDK12, CDK13) or ULight™-labeled Myelin Basic Protein peptide (VTPRTPPP (SEQ ID NO: 2)) substrate and a Europium-labeled anti-phospho-MBP antibody (CDK7). Each CDK enzyme activity assays utilized human CDK co-expressed as N-terminal GST-tagged protein with its full length cyclin partner using a baculovirus expression system.
Enzyme was pre-incubated with compounds for 30 minutes (CDK1,2,4,6,9) or 60 minutes (CDK7, CDK12, CDK13) prior to addition of ATP and Ulight-peptide (1 mM and 50 nM final, respectively), in assay buffer containing 50 mM HEPES pH 7.5, 1 mM EGTA, 10 mM MgCl2, 2 mM DTT, 0.05 mg/mL BSA, and 0.01% Tween 20. The reaction was then incubated for 60-90 minutes at room temperature. The reactions were stopped by the addition of EDTA and Europium labeled antibody, for a final concentration of 15 mM and 1.0-1.5 nM, respectively. HTRF signals were read after 15-120 minutes. A ratio of fluorescence transferred to the labeled substrate (665 nm) relative to fluorescence of the Europium donor (620 nm) represents the extent of phosphorylation. Ratios for treated wells were normalized to DMSO only (100% activity) and no enzyme (0% activity) controls. Normalized data was analyzed using a three or four parameter dose response curve to determine IC50 for each compound and are shown in Table A. Control reference inhibitors were included on each plate.
A general note: Time-resolved FRET reads energy transfer from a long-lived donor to a nearby acceptor.
What is called IC50 is the concentration that inhibits the measured activity by half. Consider `CC#CC(=O)Nc1ccc2c(c1)nc([C@H]1CCC[C@@H](Nc3ncc(C#N)c(OC)n3)C1)n2C` [Example 54, N-(2-((1S,3R)-3-((5-Cyano-4-methoxypyrimidin-2-yl)amino)cyclohexyl)-1-methyl-1H-benzo[d]imidazol-5-yl)but-2-ynamide], for which the half-inhibitory concentration (IC50) lay in the range of 50 to 500 nM.
As to `COc1nc(N[C@@H]2CCC[C@H](N3Cc4ccc(NC(=O)C(C)Br)cc4C3=O)C2)ncc1C#N` (stereo partly drawn) [Example 55, 2-Bromo-N-(2-((1S,3R)-3-((5-cyano-4-methoxypyrimidin-2-yl)amino)cyclohexyl)-3-oxoisoindolin-5-yl)propanamide], the IC50 was less than 50 nM.
Consider `C=C(F)C(=O)Nc1ccc2c(c1)C(=O)N([C@H]1CCC[C@@H](Nc3ncc(C#N)c(OC)n3)C1)C2` [Example 56, N-(2-((1S,3R)-3-((5-Cyano-4-methoxypyrimidin-2-yl)amino)cyclohexyl)-3-oxoisoindolin-5-yl)-2-fluoroacrylamide], for which the half-inhibitory concentration (IC50) is 50 to 500 nM.
`COc1nc(N[C@@H]2CCC[C@H](N3Cc4ccc(NC(=O)/C=C/CF)cc4C3=O)C2)ncc1C#N` [Example 57, (E)-N-(2-((1S,3R)-3-((5-Cyano-4-methoxypyrimidin-2-yl)amino)cyclohexyl)-3-oxoisoindolin-5-yl)-4-fluorobut-2-enamide]: the 50% inhibitory concentration (IC50) lay within 50 to 500 nM.
`COc1nc(N[C@@H]2CCC[C@H](N3Cc4ccc(NC(=O)CBr)cc4C3=O)C2)ncc1C#N` [Example 58, 2-Bromo-N-(2-((1S,3R)-3-((5-cyano-4-methoxypyrimidin-2-yl)amino)cyclohexyl)-3-oxoisoindolin-5-yl)acetamide]: the IC50 was less than 50 nM.
On to `COc1nc(N[C@@H]2CCC[C@H](N3Cc4ccc(NC(=O)CCl)cc4C3=O)C2)ncc1C#N` [Example 59, 2-Chloro-N-(2-((1S,3R)-3-((5-cyano-4-methoxypyrimidin-2-yl)amino)cyclohexyl)-3-oxoisoindolin-5-yl)acetamide], for which the 50% inhibitory concentration (IC50) was less than 50 nM.
To `CC#CC(=O)Nc1ccc2c(c1)C(=O)N([C@H]1CCC[C@@H](Nc3ncc(C#N)c(OC)n3)C1)C2` [Example 60, N-(2-((1S,3R)-3-((5-Cyano-4-methoxypyrimidin-2-yl)amino)cyclohexyl)-3-oxoisoindolin-5-yl)but-2-ynamide] belongs 50 to 500 nM.
Regarding `C=CC(=O)Nc1ccc2c(c1)C(=O)N([C@H]1CCC[C@@H](Nc3ncc(C(F)(F)F)c(OC)n3)C1)C2` [Example 61, N-(2-((1S,3R)-3-((4-Methoxy-5-(trifluoromethyl)pyrimidin-2-yl)amino)cyclohexyl)-3-oxoisoindolin-5-yl)acrylamide], the concentration for half-maximal inhibition (IC50) was less than 50 nM.
To `C=CC(=O)Nc1ccc2c(c1)C(=O)N([C@H]1CCC[C@@H](Nc3ncc(C(F)(F)F)c(N4CC[C@@H](N(C)C)C4)n3)C1)C2` [Example 62, N-(2-((1S,3R)-3-((4-((R)-3-(Dimethylamino)pyrrolidin-1-yl)-5-(trifluoromethyl)pyrimidin-2-yl)amino)cyclohexyl)-3-oxoisoindolin-5-yl)acrylamide] belongs less than 50 nM; to `COc1nc(N[C@@H]2CCC[C@H](N3Cc4ccc(NC(=O)/C=C/CN(C)C)cc4C3=O)C2)ncc1C#N` [Example 63, (E)-N-(2-((1S,3R)-3-((5-Cyano-4-methoxypyrimidin-2-yl)amino)cyclohexyl)-3-oxoisoindolin-5-yl)-4-(dimethylamino)but-2-enamide], less than 50 nM.
The value for `C/C=C/C(=O)Nc1ccc2c(c1)C(=O)N([C@H]1CCC[C@@H](Nc3ncc(C#N)c(OC)n3)C1)C2` [Example 64, (E)-N-(2-((1S,3R)-3-((5-Cyano-4-methoxypyrimidin-2-yl)amino)cyclohexyl)-3-oxoisoindolin-5-yl)but-2-enamide] was greater than 500 nM.
With `C=CC(=O)N(C)c1ccc2c(c1)C(=O)N([C@H]1CCC[C@@H](Nc3ncc(C#N)c(OC)n3)C1)C2` [Example 65, N-(2-((1S,3R)-3-((5-Cyano-4-methoxypyrimidin-2-yl)amino)cyclohexyl)-3-oxoisoindolin-5-yl)-N-methylacrylamide], the IC50 was less than 50 nM.
As to `C=CC(=O)Nc1ccc2c(c1)C(=O)N([C@H]1CCC[C@@H](Nc3ncc(C#N)c(NCC(C)(C)O)n3)C1)C2` [Example 66, N-(2-((1S,3R)-3-((5-Cyano-4-((2-hydroxy-2-methylpropyl)amino)pyrimidin-2-yl)amino)cyclohexyl)-3-oxoisoindolin-5-yl)acrylamide], the half-inhibitory concentration (IC50) was less than 50 nM.
The value for `C=CC(=O)Nc1ccc2c(c1)C(=O)N([C@H]1CCC[C@@H](Nc3ncc(C#N)c(NC)n3)C1)C2` [Example 67, N-(2-((1S,3R)-3-((5-Cyano-4-(methylamino)pyrimidin-2-yl)amino)cyclohexyl)-3-oxoisoindolin-5-yl)acrylamide] was less than 50 nM; that for `C=CC(=O)Nc1ccc2c(c1)C(=O)N([C@H]1CCC[C@@H](Nc3ncc(Br)cn3)C1)C2` [Example 68, N-(2-((1S,3R)-3-((5-Bromopyrimidin-2-yl)amino)cyclohexyl)-3-oxoisoindolin-5-yl)acrylamide] was less than 50 nM; that for `C=CC(=O)Nc1cccc2c1ncn2[C@H]1CCC[C@@H](Nc2ncc(C#N)cn2)C1` [Example 69, N-(1-((1S,3R)-3-((5-Cyanopyrimidin-2-yl)amino)cyclohexyl)-1H-benzo[d]imidazol-4-yl)acrylamide] was less than 50 nM.
In the case of `C=CC(=O)Nc1ccc2c(c1)nc([C@H]1CC[C@@H](Nc3ncc(C#N)cn3)C1)n2C` [Example 70, N-(2-((1S,3R)-3-((5-Cyanopyrimidin-2-yl)amino)cyclopentyl)-1-methyl-1H-benzo[d]imidazol-5-yl)acrylamide], the IC50 was less than 50 nM.
Regarding `C=CC(=O)Nc1ccc2c(c1)nnn2[C@H]1CCC[C@@H](Nc2ncc(C#N)cn2)C1` [Example 71, N-(1-((1S,3R)-3-((5-Cyanopyrimidin-2-yl)amino)cyclohexyl)-1H-benzo[d][1,2,3]triazol-5-yl)acrylamide], the IC50 was less than 50 nM.
The value for `C=CC(=O)Nc1ccc2c(c1)nc([C@H]1CCC[C@@H](Nc3ncc(C(F)(F)F)cn3)C1)n2C` [Example 72, N-(1-Methyl-2-((1S,3R)-3-((5-(trifluoromethyl)pyrimidin-2-yl)amino)cyclohexyl)-1H-benzo[d]imidazol-5-yl)acrylamide] was less than 50 nM; that for `C=CC(=O)Nc1ccc2c(c1)nc([C@H]1CCC[C@@H](Nc3ncc(C#N)c(OC)n3)C1)n2C` [Example 73, N-(2-((1S,3R)-3-((5-Cyano-4-methoxypyrimidin-2-yl)amino)cyclohexyl)-1-methyl-1H-benzo[d]imidazol-5-yl)acrylamide] was less than 50 nM.
To `C=CC(=O)Nc1ccc2c(c1)nc([C@H]1CCC[C@@H](Nc3ncc(C#N)cn3)C1)n2C` [Example 74, N-(2-((1S,3R)-3-((5-Cyanopyrimidin-2-yl)amino)cyclohexyl)-1-methyl-1H-benzo[d]imidazol-5-yl)acrylamide] belongs less than 50 nM; to `C=CC(=O)Nc1ccc2c(c1)C(=O)N([C@H]1CCC[C@@H](Nc3ncc(Br)c(C(F)(F)F)n3)C1)C2` [Example 75, N-(2-((1S,3R)-3-((5-Bromo-4-(trifluoromethyl)pyrimidin-2-yl)amino)cyclohexyl)-3-oxoisoindolin-5-yl)acrylamide], less than 50 nM.
As to `C=CC(=O)Nc1ccc2c(c1)C(=O)N([C@H]1CCC[C@@H](Nc3ncc(C#N)c(N4CCOCC4)n3)C1)C2` [Example 76, N-(2-((1S,3R)-3-((5-Cyano-4-morpholinopyrimidin-2-yl)amino)cyclohexyl)-3-oxoisoindolin-5-yl)acrylamide], the half-inhibitory concentration (IC50) was less than 50 nM.
For `C=CC(=O)Nc1ccc2c(c1)C(=O)N([C@H]1CCC[C@@H](Nc3ncc(C#N)c(N(C)C)n3)C1)C2` [Example 77, N-(2-((1S,3R)-3-((5-Cyano-4-(dimethylamino)pyrimidin-2-yl)amino)cyclohexyl)-3-oxoisoindolin-5-yl)acrylamide], the IC50 was less than 50 nM.
Consider `C=CC(=O)Nc1ccc2c(c1)C(=O)N([C@H]1CCC[C@@H](Nc3ncc(C(F)(F)F)c(NC)n3)C1)C2` [Example 78, N-(2-((1S,3R)-3-((4-(Methylamino)-5-(trifluoromethyl)pyrimidin-2-yl)amino)cyclohexyl)-3-oxoisoindolin-5-yl)acrylamide], for which the concentration for half-maximal inhibition (IC50) was less than 50 nM.
To `C=CC(=O)Nc1ccc2c(c1)ncn2[C@H]1CCC[C@@H](Nc2ncc(C#N)c(OC)n2)C1` [Example 79, N-(1-((1S,3R)-3-((5-Cyano-4-methoxypyrimidin-2-yl)amino)cyclohexyl)-1H-benzo[d]imidazol-5-yl)acrylamide] belongs less than 50 nM.

Source of the values: US12643881B2, “Bicyclic amine CDK12 inhibitors” (Incyte Corporation, priority 2021, dated 2026).
